According to PMC8151276, “An Integrated Approach toward NanoBRET Tracers for Analysis of GPCR Ligand Engagement” (Molecules, 2021):

Biological target: T1, EDNRA (Homo sapiens, UniProt P25101)
T1 construct: purchased Promega (in-house HiBiT-GPCR construct library, NanoBRET)
T1 sequence (P25101 21-427): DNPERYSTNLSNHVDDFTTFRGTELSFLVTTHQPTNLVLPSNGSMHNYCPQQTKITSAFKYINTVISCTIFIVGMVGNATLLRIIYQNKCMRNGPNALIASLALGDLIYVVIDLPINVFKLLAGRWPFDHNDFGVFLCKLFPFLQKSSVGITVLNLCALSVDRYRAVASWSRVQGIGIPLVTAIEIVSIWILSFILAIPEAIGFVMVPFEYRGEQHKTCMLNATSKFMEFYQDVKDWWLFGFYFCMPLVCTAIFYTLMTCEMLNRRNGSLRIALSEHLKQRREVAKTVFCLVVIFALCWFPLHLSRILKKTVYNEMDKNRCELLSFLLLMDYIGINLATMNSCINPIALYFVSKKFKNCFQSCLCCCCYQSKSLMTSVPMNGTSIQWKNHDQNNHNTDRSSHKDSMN
Test: NanoBRET screen HiBiT-EDNRA in HEK293
Format: binding
Procedure: Each tracer candidate was screened across the entire library of HiBiT-GPCR constructs using NanoBRET as the detection modality. As depicted in Figure 4A, the specificity of interactions was evaluated through decrease in BRET due to competitive displacement of a bound tracer by excess parental compound. Each tracer was analyzed for binding to each HiBiT-GPCR fusion in the absence and in the presence of competing parental compound. Briefly, HEK293 cells were transfected with HiBiT-GPCR constructs diluted into promoterless DNA to reduce expression and maximize translocation to the cell surface. Each tracer candidate was then screened at concentrations of 1 μM and 0.1 μM across cells expressing these fusions. Cells were treated for 1.5 h with tracer either alone or in the presence of 20 μM competing parental compound (i.e., control). BRET was measured upon addition of purified LgBiT and subsequent complementation with HiBiT genetically fused to a GPCR. The specificity of interactions was assessed through a decrease in BRET signal due to competitive displacement of the bound tracer. To further gauge the robustness of these interactions, the fold response over the control (i.e., BRETtracer/BRETcontrol) was calculated. We chose a 1.5-fold response, which translates to ≥7-fold signal over noise as the minimal threshold required to score an interaction as positive. […]. Below we highlight the screening results obtained for our exemplary fluorescent tracers based on Clozapine, Amitriptyline and AZD1283.
HiBiT-GPCR DNA constructs were diluted in 10 mM Tris pH 8 to a final concentration of 0.01 μg/μL, arrayed in 96-well plates and stored at −20 °C. For transfection, HEK293 cells were suspended in Opti-MEM (without phenol red) supplemented with 2% fetal bovine serum (Seradigm) and 100 units/mL penicillin–streptomycin (Gibco) at a final concentration of 220,000 cells/mL and dispensed into white 96-well plates at 90 μL/well. Subsequent transfections and screens were carried using an Agilent Bravo Automated Liquid Handling Platform. First, the 96-well HiBiT DNA arrays were diluted 25-fold in Opti-MEM (without serum or phenol red) to a final concentration of 0.0004 μg/μL and 20 μL of the diluted DNAs were transferred into new 96-well plates. Next, promoterless carrier DNA (1 μg/μL) was diluted 25-fold (0.04 μg/μL) and then dispensed into the diluted arrays at 20 μL/well. Following brief mixing, Viafect transfection reagent (Promega) diluted 16-fold into Opti-MEM was dispensed into the plates at 40 μL/well. After mixing by pipetting, plates were incubated for 10 min on the pipetting station deck. The DNA-transfection reagent complexes were then added to plates containing cells. To facilitate the screen, 10 μL of DNA-transfection reagent complexes were added in duplicates to the top 4 and bottom 4 rows, resulting in two identical 48-well arrays per plate. Plates with transfected cells were incubated for 18–20 h at 37 °C/5% CO2. A screen of each tracer across the entire library using two different concentrations requires duplicate plates of transfected cells. Depending on the number of tracers being screened, transfections can be scaled up using the same ratios. The next day, for each tracer, four 20× screening solutions in tracer dilution buffer (Promega) were prepared: two duplicates at final concentration of 20 μM and two duplicates at a final concentration of 2 μM. A competing unmodified compound was added to one of each duplicate at a final concentration of 400 μM. The four resulting solutions were diluted 4-fold in Opti-MEM without serum or phenol red to generate 5× solutions (5 µM and 0.5 µM tracer +/− 100 μM competing compound). To screen the library, a BioTek MultiFlo FX liquid dispenser was used to dispense 22.5 µL of tracer solution to the top 4 rows and 22.5 µL tracer + competing compound solution to the 4 bottom rows. Plates were briefly mixed on an orbital shaker and incubated for 1.5 h at room temperature. […]

Row | Structure (SMILES) | NanoBRET Fold Response (EDNRA, tracer 0.1μM) | NanoBRET Fold Response (EDNRA, tracer 1μM) | further results
1 | O=C(CCc1ccc2n1[B-](F)(F)[N+]1=C(c3ccc[nH]3)C=CC1=C2)NCc1ccc(C(=O)NCCOCCC(=O)N[C@@H]2CC[C@@]3(O)[C@H]4Cc5ccc(O)c6c5[C@@]3(CCN4CC3CC3)[C@H]2O6)cc1 [Naltrexone-3-NB590] | 1.00 | 0.98 | 
2 | CN1CCN(C2=Nc3cc(Cl)ccc3N(CC(=O)NCCOCCOCCOCCOCCNC(=O)CCc3ccc4n3[B-](F)(F)[N+]3=C(c5ccc[nH]5)C=CC3=C4)c3ccccc32)CC1 [Clozapine-c-2-NB590] |  |  | NanoBRET Fold Response (EDNRA, 0.1μM tracer): 0.99; NanoBRET Fold Response (EDNRA, 1μM tracer): 0.87
3 | O=C(CCOCCOCCOCCOCCNC(=O)CCc1ccc2n1[B-](F)(F)[N+]1=C(c3ccc[nH]3)C=CC1=C2)NCCCN1CCN(C2=Nc3cc(Cl)ccc3Nc3ccccc32)CC1 [Clozapine-a-2-NB590] |  |  | NanoBRET Fold Response (EDNRA, 0.1μM tracer): 1.04; NanoBRET Fold Response (EDNRA, 1μM tracer): 0.90
4 | CCOC(=O)c1cc(C#N)c(N2CCC(C(=O)NS(=O)(=O)Cc3ccccc3/C=C/C(=O)NCCNC(=O)CCc3ccc4n3[B-](F)(F)[N+]3=C(c5ccc[nH]5)C=CC3=C4)CC2)nc1C [AZD1283-1-NB590] |  |  | NanoBRET Fold Response (EDNRA, 0.1μM): 1.01; NanoBRET Fold Response (EDNRA, 1μM): 1.02
5 | COc1ccc2[nH]c(-c3ccc(CNC(=O)CCOCCOCCOCCOCCNC(=O)CCc4ccc5n4[B-](F)(F)[N+]4=C(c6ccc[nH]6)C=CC4=C5)cc3)c(CCNC(C)=O)c2n1 [AzomelatoninICO9-2-NB590] |  |  | NanoBRET Fold Response (0.1μM tracer): 0.87; NanoBRET Fold Response (1μM tracer): 0.99
6 | CCCn1c(=O)c2[nH]c(-c3ccc(OCC(=O)NCCNC(=O)CCOCCNC(=O)c4ccc(CNC(=O)CCc5ccc6n5[B-](F)(F)[N+]5=C(c7ccc[nH]7)C=CC5=C6)cc4)cc3)nc2n(CCC)c1=O [XAC-3-NB590] | 1.12 | 1.15 | 
7 | COc1ccccc1N1CCN(CCCCN2C(=O)c3ccc(CNC(=O)CCOCCNC(=O)c4ccc(CNC(=O)CCc5ccc6n5[B-](F)(F)[N+]5=C(c7ccc[nH]7)C=CC5=C6)cc4)cc3C2=O)CC1 [NAN-190-3-NB590] | 1.01 | 1.21 | 
8 | CN(CCC=C1c2ccccc2CCc2ccccc21)C(=O)CCOCCOCCOCCOCCNC(=O)CCc1ccc2n1[B-](F)(F)[N+]1=C(c3ccc[nH]3)C=CC1=C2 [Amitriptyline-e-2-NB590] |  |  | NanoBRET Fold Response (tracer at 1μM): 1.05
9 | O=C(CCc1ccc2n1[B-](F)(F)[N+]1=C(c3ccc[nH]3)C=CC1=C2)NCc1ccc(C(=O)NCCOCCOCCNCC(O)COc2cccc3ccccc23)cc1 (centres unmarked) [Propranolol-3-NB590] |  |  | NanoBRET Fold Response (EDNRA, 0.1μM): 0.97; NanoBRET Fold Response (EDNRA, 1μM): 1.03
10 | COc1ccc2c(n1)c(CCNC(C)=O)cn2CCNC(=O)CCc1ccc2n1[B-](F)(F)[N+]1=C(c3ccc[nH]3)C=CC1=C2 [Azamelatonin-1-NB590] |  |  | NanoBRET Fold Response (0.1μM tracer): 0.91; NanoBRET Fold Response (1μM tracer): 0.91
11 | O=C(CCOCCOCCOCCOCCNC(=O)CCc1ccc2n1[B-](F)(F)[N+]1=C(c3ccc[nH]3)C=CC1=C2)NCCCN1CCN(C2=Nc3ccccc3Oc3ccc(Cl)cc32)CC1 [Loxapine-a-2-NB590] | 1.05 | 0.85 | 
12 | COc1ccccc1N1CCN(CCCCN2C(=O)c3ccc(CNC(=O)CCOCCOCCOCCOCCNC(=O)CCc4ccc5n4[B-](F)(F)[N+]4=C(c6ccc[nH]6)C=CC4=C5)cc3C2=O)CC1 [NAN-190-2-NB590] | 1.02 | 1.05 | 
13 | CC(C)N(CC[C@H](c1ccccc1)c1cc(CCNC(=O)c2ccc(CNC(=O)CCc3ccc4n3[B-](F)(F)[N+]3=C(c5ccc[nH]5)C=CC3=C4)cc2)ccc1O)C(C)C [Tolterodine-BZ-NB590] | 1.05 | 1.11 | 
14 | O=C(CCc1ccc2n1[B-](F)(F)[N+]1=C(c3ccc[nH]3)C=CC1=C2)NCCOCCOCCNC(=O)OCCOCCN1CCN(C2=Nc3ccccc3Sc3ccccc32)CC1 [Quetiapine-a-2-NB590] | 1.03 | 1.04 | 
15 | CN1CCN(C2=Nc3cc(Cl)ccc3Nc3ccc(CNC(=O)CCOCCOCCOCCOCCNC(=O)CCc4ccc5n4[B-](F)(F)[N+]4=C(c6ccc[nH]6)C=CC4=C5)cc32)CC1 [Clozapine-b-2-NB590] |  |  | NanoBRET Fold Response (EDNRA, 0.1μM tracer): 0.99; NanoBRET Fold Response (EDNRA, 1μM tracer): 1.03
16 | CC(C)N(CC[C@H](c1ccccc1)c1cc(CCNC(=O)CCOCCOCCOCCOCCNC(=O)CCc2ccc3n2[B-](F)(F)[N+]2=C(c4ccc[nH]4)C=CC2=C3)ccc1O)C(C)C [Tolterodine-2-NB590] | 0.94 | 1.01 | 
17 | CN(C)CCC=C1c2ccccc2CCc2ccc(C(=O)NCCNC(=O)CCOCCOCCOCCOCCNC(=O)CCc3ccc4n3[B-](F)(F)[N+]3=C(c5ccc[nH]5)C=CC3=C4)cc21 [Amitriptyline-a-2-NB590] |  |  | NanoBRET Fold Response (tracer at 0.1μM): 0.99; NanoBRET Fold Response (tracer at 1μM): 0.99
18 | Cc1cc2c(s1)Nc1ccccc1N=C2N1CCN(CCCNC(=O)CCOCCOCCOCCOCCNC(=O)CCc2ccc3n2[B-](F)(F)[N+]2=C(c4ccc[nH]4)C=CC2=C3)CC1 [Olanzapine-a-2-NB590] | 1.02 | 1.10 | 
19 | N#CN=C(NCCCOc1cccc(CN2CCCCC2)c1)NCCNC(=O)CCOCCOCCOCCOCCNC(=O)CCc1ccc2n1[B-](F)(F)[N+]1=C(c3ccc[nH]3)C=CC1=C2 [Aminopotentidine-2-NB590] | 1.03 | 1.04 | 
20 | Cc1nc2n(c(=O)c1CCN1CCC(c3noc4cc(F)ccc34)CC1)CCCC2OC(=O)NCCOCCOCCOCCOCCNC(=O)CCc1ccc2n1[B-](F)(F)[N+]1=C(c3ccc[nH]3)C=CC1=C2 (centres unmarked) [Risperidone-2-NB590] | 1.04 | 0.97 | 
21 | CN(C)CCC=C1c2ccccc2CCc2ccc(C(=O)NCCNC(=O)CCOCCOCCOCCOCCNC(=O)CCc3ccc4n3[B-](F)(F)[N+]3=C(c5ccc[nH]5)C=CC3=C4)cc21 [Amitriptyline-b-2-NB590] |  |  | NanoBRET Fold Response (tracer at 0.1μM, listed as amitriptyline-b-2-NB590): 1.09; NanoBRET Fold Response (tracer at 1μM, listed as amitriptyline-b-2-NB590): 0.94
